Measurements taken from patent EP0367974A1, “Cis-complexes with a 1,3-diaminopropane derivative as a ligand, methods for their preparation and pharmaceutical agents containing such complexes” (BEHRINGWERKE Aktiengesellschaft, priority 1988, dated 1990).

Tests used:
NMRI-Mäusen = experiment: Acute toxicity in mice (LD50, Litchfield-Wilcoxon); format: in vivo, Maus; conditions: 3 x i.p.; survivors counted day 14 after last injection
Method: Zur Ermittlung der akuten Toxizität werden NMRI-Mäusen am Tag 0 unterschiedliche Dosen der Testsubstanz gelöst in 0.5 ml 5 %iger Glucose-Lösung, intraperitoneal injiziert. Kontrollgruppen erhalten lediglich 0.5 ml 5 %ige Glucose-Lösung. Pro Konzentration der Testsubstanz werden 5 Mäuse verwendet. Am Tag 14 nach der letzten Injektion wird die Zahl der überlebenden Mäuse ermittelt und daraus nach der Lichtfield Wilcoxon Methode die LD5, LD50 und LD95 ermittelt.

L1210-Leukämiezellen = experiment: Colony formation of L1210 leukaemia cells in soft agar; format: cell-based, Maus; conditions: colony number vs untreated control, 7 days at 37° C; 1 h incubation or continuous exposure not specified
Excerpt: Die Bestimmung der zytostatischen Wirksamkeit der hier beschriebenen Verbindungen erfolgte an L1210-Leukämiezellen der Maus. Im einzelnen wurden folgende Testsysteme verwendet:
Diese Methode dient zum Nachweis eines Einflusses der Testsubstanzen auf das Wachstumsverhalten der Zellen über mehrere Generationen (bei einer Zellzykluszeit von 10 - 12 Stunden werden in der Testzeit von 7 Tagen etwa 14 aufeinanderfolgende Generationen beobachtet). Zytostatisch wirksame Substanzen bewirken in diesem Test eine Reduktion der zu beobachtenden Koloniezahl gegenüber einer unbehandelten Kontrolle. Im einzelnen wird der Test wie folgt durchgeführt: Leukämiezellen werden mit unterschiedlichen Konzentrationen von Testsubstanz 1 Stunde bei 37° C inkubiert.
Anschließend werden die Zellen zweimal mit McCoy5A-Medium gewaschen und schließlich in Petrischalen nach Zusatz von 0.3 % Agar ausgegossen (500 Zellen/Platte). Kontrollen werden lediglich mit frischem Medium inkubiert. Anstelle der einstündigen Inkubation werden in manchen Fällen unterschiedliche Konzentrationen und Testsubstanz der oberen Agarschicht zugemischt, um so eine kontinuierliche Exposition der Zellen über die gesamte Inkubationszeit zu erreichen. Nach Erstarren des Agars werden die Platten im Brutschrank 7 Tage bei 37° C inkubiert ( 5 Vol-% CO₂, 95 % relative Luftfeuch tigkeit). Anschließend wird die Anzahl der entstandenen Kolonien mit einem Durchmesser von mehr als 60 µ gezählt. Die Ergebnisse werden angegeben als Koloniezahl in behandelten Agarplatten, in Prozent der unbehandelten Kontrolle. Aus der so erhalten Dosiswirkungskurve wird die IC₅₀ als Maß für die Wirksamkeit der Substanz ermittelt.

L1210 Leukämie der Maus = experiment: In vivo efficacy of the platinum complexes against L1210 leukaemia of the mouse; design: opt. Dose: unit not given here; conditions: for LTS (Long Term Survivor): animals alive on day 60 (cured) per group of 6, at optimal dose, 3 x i.p./i.p.; for opt. Dose: dose with the greatest antitumoural effect, schedule 3 x i.p./i.p.; for T/C % L1210: treatment schedule 3 x i.p./i.p., mean survival time vs control at optimal dose
Method: Ascitesflüssigkeit wird unter sterilen Bedingungen DBA2 Mäusen (weiblich, 18 - 20 g) 7 Tage nach Implantation entnommen. Der Ascites wird dreimal mit PBS gewaschen, gezählt und auf eine Zellzahl von 10⁶ in 0.2 ml PBS eingestellt. 10⁶ Zellen, suspendiert in 0.2 ml PBS, werden anschlie-ßend DBF1 Mäusen (weiblich, 18 - 20 g) intraperitoneal injiziert. 6 Tiere pro Gruppe werden für jede Substanz konzentration bzw. als Kontrolle eingesetzt.
• a) Die Tiere werden am Tag 1 und 5 nach Injektion der Testsubstanz gewogen.
Die Dosis, die den größten antitumoralen Effekt (optimale Dosierung) sowie jeweils eine Dosisstufe oberhalb und unterhalb dieser Dosis wurden angegeben. Tiere, die am Tag 60 des Experimentes noch leben, werden als geheilt zusätzlich getrennt aufgeführt.

Compound | LD₅₀ (NMRI-Mäusen) [mg/kg] | IC₅₀ (L1210-Leukämiezellen) [µg/mL] | LTS (Long Term Survivor) (L1210 Leukämie der Maus) | opt. Dose (L1210 Leukämie der Maus) | T/C % L1210 (L1210 Leukämie der Maus) [%]
CCC(CN)(CN)COC.CCC1(C)[O][Pt][O]C1=O [Verbindung 22, 1,3-Diamino-2-ethyl-2-methoxymethyl-propan-N,N′-platin(II)-O,O′-(2-hydroxy-2-methyl)-butyrat] | 90 to 180 | 2.9 |  |  | 
COCC(C)(CN)CN.O=C([O-])C1(C(=O)[O-])CC1.[Pt+2] [Verbindung 2, 1,3-Diamino-2-methoxymethyl-2-methyl-propan-N,N′-platin(II)-O,O′-cyclopropan-1,1-dicarboxylat] |  | 4.2 |  |  | 
CCC(CN)(CN)COC.O=C1[O][Pt][O]C(=O)C12CC2 [Verbindung 1, 1,3-Diamino-2-ethyl-2-methoxymethyl-propan-N,N′-platin(II)-O,O′-cyclopropan-1,1-dicarboxylat] | 90 to 120 | 5.0 | 6/6 | 50 | 450
COCC(C)(CN)CN.O=C1C[O][Pt][O]1 [Verbindung 17, 1,3-Diamino-2-methoxymethyl-2-methyl-propan-N,N′-platin(II)-O,O′-2-hydroxy-acetat] |  | 1.8 | 1/6 | 9.5 | 225
CCC(CN)(CN)COC.COC1C(=O)[O][Pt][O]C1=O [Verbindung 9, 1,3-Diamino-2-ethyl-2-methoxymethyl-propan-N,N′-platin(II)-O,O′-2-methoxymalonat] | 60 | 2.35 | 3/6 | 16 | 306
N.N.[Cl][Pt][Cl] [Cisplatin, reference compound] |  | 0.04 |  | 4 | 157
CCC(CN)(CN)COC.O=C1C[O][Pt][O]1 [Verbindung 16, 1,3-Diamino-2-ethyl-2-methoxymethyl-propan-N,N′-platin(II)-O,O′-2-hydroxy-acetat] |  | 1.2 | 4/6 | 15.8 | 361
